Drawing on US20240009232A1, “COMBINATION THERAPY COMPRISING HER-2-DC1 VACCINE AND A PROBIOTIC” (H. LEE MOFFITT CANCER CENTER AND RESEARCH INSTITUTE, INC., priority 2021, published 2024), this text covers tumor growth for one compound.

The subject of the assay is TUBO tumors. In words: Mono- and combination therapies in HER2+ TUBO bearing mice (FIG. 8, FIG. 9). Type of assay: in vivo, Balb/C mice. The note with it: monotherapy. As to the method:
Balb/C mice or C57BL/6 mice received tumor cells on day 0 followed by different treatments; two doses of Taxol given intraperitoneally (i.p.) once a week; CDK inhibitor, abemaciclib was administered by oral gavage till end point; Anti-PD-L1 was given i.p. twice a week until end point; DC1 vaccine was given intratumorally.
Balb/C mice bearing TUBO tumors were treated with intratumoral HER2-DC1 vaccine alone or anti-HER2 antibody or a combination of both.
TUBO bearing mice were treated with intratumoral HER2-DC1 vaccine alone or Abemaciclib or a combination of both.
Here, we can investigate the role of gut microbiome in response to combination therapy. […] Balb/C mice bearing TUBO tumors were treated with intratumoral HER-DC1 alone or anti-HER2 antibody (7.16.4+7.9.5) alone or combination of both. While CDK inhibitor, abemaciclib was given daily by oral gavage alone or in combination with intratumoral HER2-DC1.

`CC(=O)O[C@H]1C(=O)[C@@]2(C)[C@H]([C@H](OC(=O)c3ccccc3)[C@]3(O)C[C@H](OC(=O)[C@H](O)[C@@H](NC(=O)c4ccccc4)c4ccccc4)C(C)=C1C3(C)C)[C@]1(OC(C)=O)CO[C@@H]1C[C@@H]2O` [taxol, paclitaxel]: the tumor growth result is recorded as “modestly delayed tumor growth”.
